According to patent publication US20040224958A1, “Pyridopyrimidinone derivatives for treatment of neurodegenerative disease” (priority 2000, published 2004):

Key:
cdk2/cyclinE = cdk2/cyclinE (Homo sapiens, UniProt P24941); assay: Cyclin-Dependent Kinase Assay cdk2/cyclinE; conditions: cdk2/E IC50, Table 1
cdc2/cyclinB = cdc2/cyclinB (Homo sapiens, UniProt P06493); assay: Cyclin-Dependent Kinase Assay cdc2/cyclinB
Cdk5/p25 = Cdk5/p25 (Homo sapiens, UniProt Q00535); assay: Cyclin-Dependent Kinase 5 (cdk5) Assay; type: biochemical; conditions: Table 1
Summary of the method: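 Radiometric filter-plate assay: components premixed 5 min, reaction started with histone substrate and [^32P]ATP, 45 min at 30° C.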

cdk4/D = cdk4/D (Homo sapiens, UniProt P11802); assay: Cyclin-Dependent Kinase 4 (cdk4) Assay; type: biochemical; conditions: Table 1; read-out: cdk4/D IC50
cdk4/D, sequence (P11802 whole entry): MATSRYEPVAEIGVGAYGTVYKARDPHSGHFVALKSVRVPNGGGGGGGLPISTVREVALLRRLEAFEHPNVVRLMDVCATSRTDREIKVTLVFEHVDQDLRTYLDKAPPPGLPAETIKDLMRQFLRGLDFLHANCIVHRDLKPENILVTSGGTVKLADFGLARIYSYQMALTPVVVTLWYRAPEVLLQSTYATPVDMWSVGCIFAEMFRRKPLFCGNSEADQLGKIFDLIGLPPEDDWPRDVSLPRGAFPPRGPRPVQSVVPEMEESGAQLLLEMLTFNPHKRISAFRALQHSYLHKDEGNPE
cdk4/D, sequence (P24385 whole entry, further chain): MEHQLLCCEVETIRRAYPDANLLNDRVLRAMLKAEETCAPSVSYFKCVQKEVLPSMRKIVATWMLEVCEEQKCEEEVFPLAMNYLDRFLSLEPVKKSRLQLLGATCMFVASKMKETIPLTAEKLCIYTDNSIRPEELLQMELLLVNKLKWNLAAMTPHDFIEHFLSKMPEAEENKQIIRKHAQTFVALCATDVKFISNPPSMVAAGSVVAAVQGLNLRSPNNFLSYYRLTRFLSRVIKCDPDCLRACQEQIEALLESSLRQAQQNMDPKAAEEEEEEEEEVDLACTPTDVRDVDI

cdk2/cyclinA = cdk2/cyclinA (Homo sapiens, UniProt P24941); assay: Cyclin-Dependent Kinase Assay cdk2/cyclinA; conditions: cdk2/A IC50, Table 1

cdc2/cyclinB, sequence (P06493 whole entry): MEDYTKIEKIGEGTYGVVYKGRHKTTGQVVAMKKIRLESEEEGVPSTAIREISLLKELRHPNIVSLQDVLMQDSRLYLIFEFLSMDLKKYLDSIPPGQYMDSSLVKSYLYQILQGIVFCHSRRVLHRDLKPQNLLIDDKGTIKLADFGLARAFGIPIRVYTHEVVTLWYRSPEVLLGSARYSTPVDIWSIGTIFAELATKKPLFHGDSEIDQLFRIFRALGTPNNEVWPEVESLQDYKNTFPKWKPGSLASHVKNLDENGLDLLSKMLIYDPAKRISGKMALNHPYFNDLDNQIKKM
cdc2/cyclinB, sequence (P14635 whole entry, further chain): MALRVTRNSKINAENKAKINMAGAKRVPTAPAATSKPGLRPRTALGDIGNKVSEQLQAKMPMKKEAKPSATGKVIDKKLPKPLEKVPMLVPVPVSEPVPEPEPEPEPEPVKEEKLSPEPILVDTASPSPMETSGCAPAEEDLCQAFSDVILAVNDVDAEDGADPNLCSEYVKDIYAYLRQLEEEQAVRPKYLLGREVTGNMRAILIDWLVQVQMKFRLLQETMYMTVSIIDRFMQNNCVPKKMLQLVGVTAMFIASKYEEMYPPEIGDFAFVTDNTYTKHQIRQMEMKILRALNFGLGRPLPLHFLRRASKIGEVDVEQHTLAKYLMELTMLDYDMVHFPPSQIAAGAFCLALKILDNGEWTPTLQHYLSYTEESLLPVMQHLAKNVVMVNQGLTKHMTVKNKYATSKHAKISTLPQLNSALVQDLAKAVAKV

| Structure (SMILES) | IC50 (cdk2/cyclinE) [nM] | IC50 (cdc2/cyclinB) [nM] | melting point [°C] | IC50 (Cdk5/p25) [nM] | IC50 (cdk4/D) [nM] | IC50 (cdk2/cyclinA) [nM] |
| --- | --- | --- | --- | --- | --- | --- |
| CN(C)c1ccc(Nc2ncc3ccc(=O)n(CCCOCc4ccccc4)c3n2)cc1 [Example 138, 8-(3-Benzyloxy-propyl)-2-(4-dimethylamino-phenylamino)-8H-pyrido[2,3-d]pyrimidin-7-one] | 2630 | 3300 | 144 to 146 | 280 | 513 | 217 |
| CC1CCN(c2ccc(Nc3ncc4ccc(=O)n(C5CCCCC5)c4n3)cc2)CC1 [Example 159, 8-Cyclohexyl-2-[4-(4-methyl-piperidin-1-yl)-phenylamino]-8H-pyrido[2,3-d]pyrimidin-7-one] | 19.7 | 78.5 | 208 to 209 | 6.9 | 4.5 | 15 |
| CN1CCN(c2ccc(Nc3ncc4ccc(=O)n(C5CCCCC5)c4n3)cc2)CC1 [Example 133, 8-Cyclohexyl-2-[4-(4-methyl-piperazin-1-yl)-phenylamino]-8H-pyrido[2,3-d]pyrimidin-7-one] | 19.7 | 78.5 | 205 to 207 | 6.9 | 4.5 | 15 |
| O=c1ccc2cnc(Nc3ccc(-n4cccc4)cc3)nc2n1C1CCCCC1 [Example 161, 8-Cyclohexyl-2-(4-pyrrole-1-yl-phenylamino)-811-pyrido[2,3-d]pyrimidin-7-one] | 554 | 450 | 183 to 184 | 43.1 | 275 | 104 |
| CC1CN(c2ccc(Nc3ncc4ccc(=O)n(C5CCCCC5)c4n3)cc2)CC(C)N1 (stereo not drawn) [Example 145, 8-Cyclohexyl-2-14-(3,5-dimethyl-piperazin-1-yl)-phenylamino-8H-pyrido[2,3-d]pyrimidin-7-one] | 45.5 | 146 | 237 to 239 | 17.3 | 4.5 | 32.5 |
| O=c1ccc2cnc(Nc3ccc(-n4cccn4)cc3)nc2n1C1CCCCC1 [Example 162, 8-Cyclohexyl-2-(4-pyrazol-1-yl-phenylamino)-8H-pyrido[2,3-d]pyrimidin-7-one] | 87 | 267 | 241 to 242 | 42.5 | 89 | 35.7 |
| CCN(CC)CCOc1ccc(Nc2ncc3ccc(=O)n(C4CCCCC4)c3n2)cc1 [Example 132, 8-Cyclohexyl-2-[4-(2-diethylamino-ethoxy)-phenylamino]-8H-pyrido[2,3-d]pyrimidin-7-one] | 91 | 373 | 135 to 137 | 25.9 | 10.5 | 60.5 |
| O=c1ccc2cnc(Nc3ccc(N4CCCC4)cc3)nc2n1C1CCCCC1 [Example 160, 8-Cyclohexyl-2-(4-pyrrolidin-1-yl-phenylamino)-8H1-pyrido[2,3-d]pyrimidin-7-one] |  | 250 | 199 to 200 | 113 | 175 | 61 |
| CC1CC(C)CN(c2ccc(Nc3ncc4ccc(=O)n(C5CCCCC5)c4n3)cc2)C1 (stereo not drawn) [Example 167] |  | 8910 | 238 to 240 | 2680 | 430 | 272 |

Second part, the molecule after the results:

| IC50 (cdk2/cyclinE) [nM] | IC50 (cdc2/cyclinB) [nM] | melting point [°C] | IC50 (Cdk5/p25) [nM] | IC50 (cdk4/D) [nM] | IC50 (cdk2/cyclinA) [nM] | Structure (SMILES) |
| --- | --- | --- | --- | --- | --- | --- |
| 14 | 189 | 219 to 220 | 10.1 | 29.7 | 16 | O=c1ccc2cnc(Nc3ccc(F)cc3)nc2n1C1CC2CCC1C2 (stereo not drawn) [Example 212, 8-Bicyclo[2.2.1]hept-2-yl-2-(4-fluoro-phenylamino)-8H-pyrido[2,3-d]pyrimidin-7-one] |
| 85 | 220 | 152 | 167 | 2.1 | 63 | O=c1ccc2cnc(Nc3ccc(N4CCCC(CO)C4)cc3)nc2n1C1CC2CCC1C2 (stereo not drawn) [Example 231, 8-Bicyclo[2.2.1]hept-2-yl-2-[4-(3-hydroxymethyl-piperidin-1-yl)-phenylamino]-8H-pyrido[2,3-d]pyrimidin-7-one] |
| 50 | 1660 | 227 to 228 | 66.2 | 115 | 57.8 | O=c1ccc2cnc(Nc3ccc(F)c(F)c3)nc2n1C1CC2CCC1C2 (stereo not drawn) [Example 220, 8-Bicyclo[2.2.1]hept-2-yl-2-(3,4-difluoro-phenylamino)-8H-pyrido[2,3-d]pyrimidin-7-one] |
| 185 | 380 | 202 | 38.8 | 5.5 | 98.5 | O=c1ccc2cnc(Nc3ccc(N4CCC(CCO)CC4)cc3)nc2n1C1CC2CCC1C2 (stereo not drawn) [Example 228, 8-Bicyclo[2.2.1]hept-2-yl-2-{4-[4-(2-hydroxy-ethyl)-piperidin-1-yl]-phenylamino}-8H-pyrido[2,3-d]pyrimidin-7-one] |
| 56 | 82.5 | 206 | 36 | 2.8 | 20.7 | O=c1ccc2cnc(Nc3ccc(N4CCC(O)CC4)cc3)nc2n1C1CC2CCC1C2 (stereo not drawn) [Example 227, 8-Bicyclo[2.2.1]hept-2-yl-2-[4-(4-hydroxy-piperidin-1-yl)-phenylamino]-8H-pyrido[2,3-d]pyrimidin-7-one] |
|  | 33400 | 243 to 244 | 591 | 57.7 | 195 | O=c1ccc2cnc(Nc3ccc(N4CCCCC4)cc3)nc2n1[C@@H]1C[C@H]2CC[C@@H]1C2 (relative stereo) [Example 181, 8-Bicyclo[2.2.1]hept-2-yl-2-(4-piperidin-1-yl-phenylamino)-8H-pyrido[2,3-d]pyrimidin-7-one] |
| 102 | 160 | 233 to 234 | 23.7 | 6.1 | 42.5 | CN1CCN(c2ccc(Nc3ncc4ccc(=O)n(C5CC6CCC5C6)c4n3)cc2)CC1 (stereo not drawn) [Example 252] |
| 320 | 1210 | 185 | 419 |  | 123 | O=c1ccc2cnc(Nc3ccc(N4CCc5ccccc5C4)cc3)nc2n1C1CCCCC1 [Example 171, 8-Cyclohexyl-2-[4-(3,4-dihydro-1H-isoquinolin-2-yl)-phenylamino]-8H-pyrido[2,3-d]pyrimidin-7-one] |
|  | 1700 | 197 to 198 | 1460 | 37 | 96 | O=c1ccc2cnc(Nc3ccc(N4CCC(CCCN5CCOCC5)CC4)cc3)nc2n1C1CC2CCC1C2 (stereo not drawn) [Example 235, 8-Bicyclo[2.2.1]hept-2-yl-2-{4-[4-(3-morpholin-4-yl-propyl)-piperidin-1-yl]-phenylamino}-8H-pyrido[2,3-d]pyrimidin-7-one] |
| 75 | 200 | 133 to 134 | 53.2 |  | 81.5 | CCN(CC)CCOc1ccc(Nc2ncc3ccc(=O)n(C4CC5CCC4C5)c3n2)cc1 (stereo not drawn) [Example 224, 8-Bicyclo[2.2.1]hept-2-yl-2-[4-(2-diethylamino-ethoxy)-phenylamino]-8H-pyrido[2,3-d]pyrimidin-7-one] |
| 31900 | 7070 | 214 to 215 | 568 | 780 | 6610 | O=c1ccc2cnc(Nc3ccc(OC(F)(F)C(F)F)cc3)nc2n1C1CC2CCC1C2 (stereo not drawn) [Example 219, 8-Bicyclo[2.2.1]hept-2-yl-2-[4-(1,1,2,2-tetrafluoro-ethoxy)-phenylamino]-8H-pyrido[2,3-d]pyrimidin-7-one] |
| 24 | 112 | 224 to 225 | 24.4 | 7.5 | 8.4 | O=c1ccc2cnc(Nc3ccc(N4CCC(O)CC4)cc3)nc2n1C1CCCCC1 [Example 215, 8-Cyclohexyl-2-[4-(4-hydroxy-piperidin-1-yl)-phenylamino]-8H-pyrido[2,3-d]pyrimidin-7-one] |
| 149 | 670 | 160 to 161 | 300 | 11.5 | 110 | O=c1ccc2cnc(Nc3ccc(N4CCCCC4CO)cc3)nc2n1C1CC2CCC1C2 (stereo not drawn) [Example 253] |
